Series [1] has as its target T1, STK3 (Homo sapiens (Human), UniProt Q13188). Description: ADP-Glo kinase assay, STK3. The format is biochemical. The settings on record: ADP-Glo, 50 μM ATP; read-out: STK3 IC50. In outline: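 Full-length recombinant human STK3 (50 ng) phosphorylated 250 μg/mL myelin basic protein, and full-length STK4 (50 ng) phosphorylated 300 μg/mL Axltide, both at 50 μM ATP; ADP formed detected by ADP-Glo. Three experiments, each in triplicate.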

In series [2] the target is T1, STK3. Description: NanoBRET intracellular kinase assay, STK3. Format: cell-based. The settings on record: NanoBRET, transfected HEK293 cells, 2 h; read-out: STK3: IC50. The method, then:
(§1) Full-length STK3, STK4, and LRRK2 kinase was cloned in-frame with a C-terminal NanoLuc-fusion (Promega: Madison, WI, USA) and the plasmid was transfected into HEK293T cells using FuGENE HD (Promega, E2312). […] After 2 h at 37° C. in a 5% CO2 atmosphere, NanoBRET NanoGlo Substrate+Extra-cellular NanoLuc Inhibitor (Promega, N2540) was added, and filtered luminescence was measured on a PHERAstar plate reader (BMG Labtech; Ortenberg, Germany) equipped with a lumi-nescence filter pair (450 nm BP filter (donor) and 610 nm LP filter (acceptor)).
(§2) This assay measured the apparent affinity of test compounds by competitive displacement of the NanoBRET™ tracer, reversibly bound to a NanoLuc® luciferase-kinase fusion in cells. To evaluate potential off-target activity of the inhibitors, the inhibition of LRRK2 in live cells by the STK3/4 inhibitors compounds described herein were measured. […] A 50 nM tracer and these compounds were added to cells and incubated for 2 h.
For orientation: In BRET a luciferase serves as donor, and the signal depends on an acceptor being close.

The next series concerns the target STK4 (Homo sapiens (Human), UniProt Q13043). Description: NanoBRET intracellular kinase assay, STK4. The format is cell-based. The settings on record: transfected HEK293 cells, 2 h. The method, then:
as §1, §2

In a further series the target is LRRK2 (Homo sapiens (Human), UniProt Q5S007). As to the kind of experiment: NanoBRET intracellular kinase assay, LRRK2. Format: cell-based. The settings on record: transfected HEK293 cells, 2 h. The method, then:
Full-length STK3, STK4, and LRRK2 kinase was cloned in-frame with a C-terminal NanoLuc-fusion (Promega: Madison, WI, USA) and the plasmid was transfected into HEK293T cells using FuGENE HD (Promega, E2312). After 20 h, transfected cells were mixed with inhibitors and 50 nM NanoBRET Kinase Tracer K10 (Promega) and reseeded at a density of 2× 10^5 cells/mL in Opti-Minimal Essential Medium (MEM) without phenol red (Life Technologies; Carlsbad, CA, USA) in 384-well plates (Greiner 781-207; Kremsmunster, Austria). After 2 h at 37° C. in a 5% CO2 atmosphere, NanoBRET NanoGlo Substrate+Extra-cellular NanoLuc Inhibitor (Promega, N2540) was added, and filtered luminescence was measured on a PHERAstar plate reader (BMG Labtech; Ortenberg, Germany) equipped with a lumi-nescence filter pair (450 nm BP filter (donor) and 610 nm LP filter (acceptor)).
To confirm cellular potency for compounds described herein, the […] were used to detect engagement of STK3 and STK4 in live cells using the NanoBRET™ intracellular kinase assay, marking the first report of a NanoBRET assay for STK3 and STK4. This assay measured the apparent affinity of test compounds by competitive displacement of the NanoBRET™ tracer, reversibly bound to a NanoLuc® luciferase-kinase fusion in cells. To evaluate potential off-target activity of the inhibitors, the inhibition of LRRK2 in live cells by the STK3/4 inhibitors compounds described herein were measured. Cultured HEK293 cells were either transfected with NanoLuc®-STK3 fusion vector, NanoLuc®-STK4 fusion, or with NanoLuc®-LRRK2 vector for 24 h. A 50 nM tracer and these compounds were added to cells and incubated for 2 h. These compounds tested in the assays decreased the NanoBRET™ signal for both STK3 and STK4 at varying potencies and confirming cellular target engagement of STK3/4.

Series [3] deals with phosphorylated MOB1 (Thr35) in HEK293 cells. As to the kind of experiment: Western blot analysis of p-MOB1 in HEK293 cells. Format: cell-based. The settings on record: 10 μM, 4 h, then H2O2 50 μM 2 h, vs DMSO. The method, then: Cells were harvested by pipetting, pelleted by centrifugation at 1400 rpm for 4 min, and lysed in RIPA buffer for 10 min at room temperature. The lysates were centrifuged at 12,000×g at room temperature (RT) for 10 min and the supernatants were recovered. Protein concentrations in the supernatants were determined using a BCA assay (Pierce/Thermo Scientific). Proteins were separated on NovexTM WedgeWellTM 4-20% Tris-Glycine Gels (Invitrogen; Carlsbad, CA, USA) and transferred to polyvinylidene difluoride (Trans-Blot® TurboTM Transfer Pack) membranes. […] Danvers. MA. USA). Blots were rinsed three times with TBST and then incubated in 5% nonfat milk containing horseradish peroxidase (HRP)-conjugated mouse anti-rabbit IgG secondary Ab (Cell Signaling Technology) for 1 h at RT. Blots were washed three times with TBST, developed using Pierce® ECL Western Blotting reagent, and imaged and analyzed using with ImageJ software. Quantitative data are expressed as the level of phosphorylated MOB1 normalized to total MOB1. To confirm that the cellular mechanism of action of our inhibitors was through inhibition of Hippo pathway signaling. […] Inhibition of STK3/4 in vitro and in vivo can produce decreased phosphorylation of the Hippo pathway adapter protein MOB1 at […].
A general note: In western blotting, separated proteins are transferred to a membrane and probed.

A further series is described as follows: Caco-2 permeability. The format is in vitro ADME. To be noted: human; for Papp B→A: Caco-2; for efflux ratio: Caco-2, Papp (B→A/A→B). The method, then: (§3) The Caco-2 cell permeability was determined for selected compounds 6, 11, 16, and 23. Permeability is classified as follows: high >10, medium, 1-10, and low ≤1. The efflux ratio is calculated by Papp (B→A/A→B). A compound is a potential transporter substrate if efflux ratio >2.0. Atenolol, Propranolol, and Taxol were used as internal standards. Data is represented as an average of a single experiment preformed in duplicate. Apparent permeability=(Papp).

For another series, the system named is Caco-2 cell. As to the kind of experiment: Caco-2 permeability. The format is in vitro ADME. To be noted: Caco-2, classification. The method, then:
as §3
For orientation: Passage across Caco-2 layers is used to estimate intestinal permeability.

T1 sequence (Q13188 whole entry): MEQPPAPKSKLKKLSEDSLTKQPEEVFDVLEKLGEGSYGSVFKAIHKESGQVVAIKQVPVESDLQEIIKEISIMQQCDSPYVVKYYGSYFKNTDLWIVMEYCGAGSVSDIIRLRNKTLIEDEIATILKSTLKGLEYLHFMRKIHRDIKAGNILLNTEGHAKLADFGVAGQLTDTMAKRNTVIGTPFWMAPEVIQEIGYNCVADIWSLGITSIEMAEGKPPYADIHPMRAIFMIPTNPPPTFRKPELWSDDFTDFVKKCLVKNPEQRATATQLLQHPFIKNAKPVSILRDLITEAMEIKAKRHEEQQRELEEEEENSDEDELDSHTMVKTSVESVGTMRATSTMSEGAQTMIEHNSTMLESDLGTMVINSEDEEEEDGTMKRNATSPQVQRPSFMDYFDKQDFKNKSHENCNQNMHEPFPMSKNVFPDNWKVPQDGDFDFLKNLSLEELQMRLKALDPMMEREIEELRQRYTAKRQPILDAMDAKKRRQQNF
Chain of STK4 (Q13043 whole entry): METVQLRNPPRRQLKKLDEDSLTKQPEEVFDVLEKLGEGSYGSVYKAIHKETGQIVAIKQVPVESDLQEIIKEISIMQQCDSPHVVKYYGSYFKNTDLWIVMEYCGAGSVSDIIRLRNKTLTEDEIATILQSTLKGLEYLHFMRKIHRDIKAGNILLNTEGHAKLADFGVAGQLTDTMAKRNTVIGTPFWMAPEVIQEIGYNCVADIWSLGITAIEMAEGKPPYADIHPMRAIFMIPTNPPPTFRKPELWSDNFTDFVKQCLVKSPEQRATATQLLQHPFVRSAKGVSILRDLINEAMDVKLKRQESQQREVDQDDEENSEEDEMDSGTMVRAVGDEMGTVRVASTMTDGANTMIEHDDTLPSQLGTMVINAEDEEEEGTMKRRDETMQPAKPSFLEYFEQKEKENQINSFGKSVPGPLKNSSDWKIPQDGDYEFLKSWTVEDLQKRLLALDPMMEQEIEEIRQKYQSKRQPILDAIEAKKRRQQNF
Chain of LRRK2 (Q5S007 whole entry, species assumed, the tested form may be a part): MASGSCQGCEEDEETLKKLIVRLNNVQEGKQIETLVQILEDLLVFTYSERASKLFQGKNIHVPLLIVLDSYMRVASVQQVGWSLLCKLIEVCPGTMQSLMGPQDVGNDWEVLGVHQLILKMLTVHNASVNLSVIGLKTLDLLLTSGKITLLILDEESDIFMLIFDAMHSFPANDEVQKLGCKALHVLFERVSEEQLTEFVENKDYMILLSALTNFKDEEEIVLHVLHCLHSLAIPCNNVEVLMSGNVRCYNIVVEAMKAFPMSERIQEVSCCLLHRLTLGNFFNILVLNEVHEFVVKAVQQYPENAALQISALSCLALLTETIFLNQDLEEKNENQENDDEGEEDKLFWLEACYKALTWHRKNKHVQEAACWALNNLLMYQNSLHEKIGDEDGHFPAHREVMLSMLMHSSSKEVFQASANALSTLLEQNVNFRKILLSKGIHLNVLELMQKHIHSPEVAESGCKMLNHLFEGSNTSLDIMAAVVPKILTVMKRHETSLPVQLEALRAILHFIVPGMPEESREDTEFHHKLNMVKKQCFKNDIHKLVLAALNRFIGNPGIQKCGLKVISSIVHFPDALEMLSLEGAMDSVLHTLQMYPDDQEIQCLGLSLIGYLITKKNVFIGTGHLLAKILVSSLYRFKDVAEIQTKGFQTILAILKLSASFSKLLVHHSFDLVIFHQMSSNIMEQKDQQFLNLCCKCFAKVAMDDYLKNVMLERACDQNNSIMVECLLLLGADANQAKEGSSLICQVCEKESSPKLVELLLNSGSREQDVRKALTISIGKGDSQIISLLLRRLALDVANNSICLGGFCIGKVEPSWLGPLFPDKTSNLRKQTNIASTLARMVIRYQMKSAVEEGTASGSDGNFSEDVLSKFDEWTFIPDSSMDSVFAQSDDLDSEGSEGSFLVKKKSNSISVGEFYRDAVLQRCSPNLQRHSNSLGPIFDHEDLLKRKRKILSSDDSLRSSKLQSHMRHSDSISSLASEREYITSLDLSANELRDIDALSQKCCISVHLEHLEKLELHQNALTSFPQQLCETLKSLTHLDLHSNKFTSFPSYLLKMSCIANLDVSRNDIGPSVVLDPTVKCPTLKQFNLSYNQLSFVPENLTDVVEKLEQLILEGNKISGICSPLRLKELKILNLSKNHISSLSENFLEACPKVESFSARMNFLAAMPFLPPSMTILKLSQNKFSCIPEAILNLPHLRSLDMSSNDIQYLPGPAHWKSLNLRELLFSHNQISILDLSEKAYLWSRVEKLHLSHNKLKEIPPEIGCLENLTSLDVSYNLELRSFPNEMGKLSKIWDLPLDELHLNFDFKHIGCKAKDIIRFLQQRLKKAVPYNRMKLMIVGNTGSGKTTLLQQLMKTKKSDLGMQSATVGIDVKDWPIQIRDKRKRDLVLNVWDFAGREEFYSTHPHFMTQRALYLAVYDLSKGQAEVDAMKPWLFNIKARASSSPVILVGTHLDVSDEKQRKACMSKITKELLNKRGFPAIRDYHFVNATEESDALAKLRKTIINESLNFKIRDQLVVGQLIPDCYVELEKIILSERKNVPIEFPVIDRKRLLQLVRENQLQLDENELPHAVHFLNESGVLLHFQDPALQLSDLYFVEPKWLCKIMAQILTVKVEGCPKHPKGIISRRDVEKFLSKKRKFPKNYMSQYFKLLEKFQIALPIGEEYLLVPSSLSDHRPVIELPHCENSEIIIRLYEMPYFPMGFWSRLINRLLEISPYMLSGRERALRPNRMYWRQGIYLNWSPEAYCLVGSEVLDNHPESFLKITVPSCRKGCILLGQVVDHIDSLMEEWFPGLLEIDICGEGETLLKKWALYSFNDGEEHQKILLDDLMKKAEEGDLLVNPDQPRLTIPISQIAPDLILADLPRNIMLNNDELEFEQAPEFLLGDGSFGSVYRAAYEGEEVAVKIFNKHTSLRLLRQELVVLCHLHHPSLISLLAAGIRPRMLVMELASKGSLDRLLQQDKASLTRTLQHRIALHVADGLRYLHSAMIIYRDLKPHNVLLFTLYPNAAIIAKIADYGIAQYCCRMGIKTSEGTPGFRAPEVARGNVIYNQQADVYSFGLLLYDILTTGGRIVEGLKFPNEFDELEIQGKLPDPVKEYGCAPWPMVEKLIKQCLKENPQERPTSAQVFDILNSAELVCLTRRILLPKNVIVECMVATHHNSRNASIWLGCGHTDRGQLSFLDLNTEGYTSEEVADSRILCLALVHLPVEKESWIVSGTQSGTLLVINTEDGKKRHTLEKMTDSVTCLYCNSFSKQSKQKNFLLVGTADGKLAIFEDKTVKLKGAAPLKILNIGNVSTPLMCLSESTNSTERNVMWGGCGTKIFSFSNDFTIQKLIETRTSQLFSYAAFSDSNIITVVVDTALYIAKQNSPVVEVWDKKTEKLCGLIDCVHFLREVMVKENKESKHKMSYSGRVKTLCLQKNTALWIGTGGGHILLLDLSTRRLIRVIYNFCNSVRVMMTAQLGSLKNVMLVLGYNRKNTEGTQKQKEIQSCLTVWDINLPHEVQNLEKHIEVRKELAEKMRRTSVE

As for `OC1CCN(c2ncnc3[nH]cc(-c4cccc(Cl)c4)c23)CC1` [Compound 16, 1-(5-(3-Chlorophenyl)-7H-pyrrolo[2,3-d]pyrimidin-4-yl)piperidin-4-ol], the half-maximal inhibitory concentration (IC50) at STK3 [1], on STK3 [2] and at STK4 was less than 1 µM each time. Besides, the “LRRK2: IC50” value on LRRK2 was “B (B: IC50 is >2000 nM and <1000 nM)”. Further, in series [3], the “relative expression level of phosphorylated MOB1” value (from here on “relative expression level”) is listed as “significant reduction”. Also, the Papp B→A in the series “Caco-2 permeability” came out at 2940 nm/s. For the same compound, the efflux ratio in the series “Caco-2 permeability” worked out at 1.3. Further, the Papp in the series “Caco-2 permeability” (Caco-2, classification) was greater than 100 nm/s. Also, the Permeability result with Caco-2 cell was “High”.

As for `Clc1cccc(-c2c[nH]c3nccc(N4CCOCC4)c23)c1` [Compound 23, 4-(3-(3-chlorophenyl)-1H-pyrrolo[2,3-b]pyridin-4-yl)morpholine], the IC50 at STK3 [1] is less than 1 µM; on STK3 [2] it was less than 1 µM; against STK4, less than 1 µM; against LRRK2 it was no more than 1 µM. For the same compound, the “relative expression level” value in series [3] is “significant reduction”. For the same compound, the Papp B→A in “Caco-2 permeability” turned out to be 70 nm/s. In addition, the efflux ratio in “Caco-2 permeability” is 1.6. For the same compound, the Permeability entry with Caco-2 cell was “High”.

For the compound `CC(=O)NC1CCN(c2ncnc3[nH]cc(-c4cccc(Cl)c4)c23)CC1` [Compound 105, N-(1-(5-(3-chlorophenyl)-7H-pyrrolo[2,3-d]pyrimidin-4-yl)piperidin-4-yl)acetamide], the IC50 on STK3 [1], on STK3 [2] and at STK4 was less than 1 µM in each case. Also, the “LRRK2: IC50” value on LRRK2 is “B (B: IC50 is >2000 nM and <1000 nM)”. For the same compound, the “relative expression level” value in series [3] is listed as “significant reduction”.

In the case of `Clc1cccc(-c2c[nH]c3ncnc(N4CCOCC4)c23)c1` [Compound 6, 4-(5-(3-Chlorophenyl)-7H-pyrrolo[2,3-d]pyrimidin-4-yl)morpholine], the IC50 is less than 1 µM against STK4 and no more than 1 µM against LRRK2. This compound also came in with a Papp B→A in the series “Caco-2 permeability” of 357 nm/s. In addition, in the series with Caco-2 cell, the Permeability entry is “High”.

In the case of `NC(=O)c1cccc(-c2c[nH]c3ncnc(N4CCOCC4)c23)c1` [Compound 11, 3-(4-Morpholino-7H-pyrrolo[2,3-d]pyrimidin-5-yl)benzamide], the IC50 is less than 1 µM at STK3 [1], less than 1 µM on STK3 [2] and no less than 2 µM at LRRK2. In addition, the Papp B→A in the series “Caco-2 permeability” is 1360 nm/s. Moreover, the Permeability result with Caco-2 cell is “Medium to High”.

A word on the IC50: it is the point on the concentration scale where inhibition reaches its midpoint. What is called Papp B→A is how fast a substance crosses the layer from the basolateral side. As a reminder, the efflux ratio is a quotient of directional permeabilities that is used to spot active efflux. Broadly, the Papp is a coefficient for how fast a substance crosses the barrier. The low end stands for slow passage, the high end for fast passage.

The record behind these values is patent US20250051337A1 (priority 2021, published 2025).
